Laboratory results taken from PubChem BioAssay (NCI).
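Five concentrations, 48 hours, 96-well plates. GI50 marks 50% less growth. TGI is the concentration that stops growth completely.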

Key:
Assay in all cases: inhibition of tumour cell growth, NCI panel, 48 h
MCF7 breast = test system: MCF7 breast
BT-549 breast = test system: BT-549 breast
A549 NSCLC = test system: A549 NSCLC
A498 renal = test system: A498 renal
HCC-2998 colon = test system: HCC-2998 colon
HCT-15 colon = test system: HCT-15 colon
786-0 renal = test system: 786-0 renal
T-47D breast = test system: T-47D breast
MDA-MB-468 breast = test system: MDA-MB-468 breast
HL-60(TB) leukemia = test system: HL-60(TB) leukemia
MDA-MB-435 = test system: MDA-MB-435
U251 CNS = test system: U251 CNS
HOP-92 NSCLC = test system: HOP-92 NSCLC
COLO 205 colon = test system: COLO 205 colon
UACC-257 melanoma = test system: UACC-257 melanoma
K-562 leukemia = test system: K-562 leukemia
SF-268 CNS = test system: SF-268 CNS
KM12 colon = test system: KM12 colon
RPMI-8226 leukemia = test system: RPMI-8226 leukemia
OVCAR-3 ovarian = test system: OVCAR-3 ovarian
MOLT-4 leukemia = test system: MOLT-4 leukemia
OVCAR-4 ovarian = test system: OVCAR-4 ovarian
MALME-3M melanoma = test system: MALME-3M melanoma
SF-539 CNS = test system: SF-539 CNS
ACHN renal = test system: ACHN renal
HCT-116 colon = test system: HCT-116 colon
NCI-H460 lung = test system: NCI-H460 lung
SNB-19 CNS = test system: SNB-19 CNS
OVCAR-5 ovarian = test system: OVCAR-5 ovarian
RXF 393 renal = test system: RXF 393 renal
NCI-H522 lung = test system: NCI-H522 lung
CCRF-CEM leukemia = test system: CCRF-CEM leukemia
NCI/ADR-RES ovarian = test system: NCI/ADR-RES ovarian
M14 melanoma = test system: M14 melanoma
HOP-62 NSCLC = test system: HOP-62 NSCLC
PC-3 prostate = test system: PC-3 prostate
SK-MEL-5 melanoma = test system: SK-MEL-5 melanoma
OVCAR-8 ovarian = test system: OVCAR-8 ovarian
NCI-H226 lung = test system: NCI-H226 lung
CAKI-1 renal = test system: CAKI-1 renal
UACC-62 melanoma = test system: UACC-62 melanoma
DU-145 prostate = test system: DU-145 prostate
TK-10 renal = test system: TK-10 renal
SF-295 CNS = test system: SF-295 CNS
SK-MEL-28 melanoma = test system: SK-MEL-28 melanoma
IGROV1 ovarian = test system: IGROV1 ovarian
SN12C renal = test system: SN12C renal
SW-620 colon = test system: SW-620 colon
HS 578T breast = test system: HS 578T breast
NCI-H23 lung = test system: NCI-H23 lung
SK-OV-3 ovarian = test system: SK-OV-3 ovarian
LOX IMVI melanoma = test system: LOX IMVI melanoma
SR leukemia = test system: SR leukemia
EKVX NSCLC = test system: EKVX NSCLC
HT29 colon = test system: HT29 colon

## O=C(Nc1ccc(F)cc1)Nc1nc2ccc([N+](=O)[O-])cc2s1
MCF7 breast
  GI50: 2.51 µM
  TGI: 8.65 µM
BT-549 breast
  GI50: 1.95 µM
  TGI: 5.03 µM
A549 NSCLC
  GI50: 2.75 µM
  TGI: 11.6 µM
A498 renal
  GI50: 2.26 µM
  TGI: 6.46 µM
HCC-2998 colon
  GI50: 3.56 µM
  TGI: 12.5 µM
HCT-15 colon
  GI50: 2.73 µM
  TGI: 10.2 µM
786-0 renal
  GI50: 3.07 µM
  TGI: 11.5 µM
T-47D breast
  GI50: 2.58 µM
  TGI: 7.68 µM
MDA-MB-468 breast
  GI50: 2.36 µM
  TGI: 6.75 µM
HL-60(TB) leukemia
  GI50: 1.97 µM
  TGI: 4.67 µM
MDA-MB-435
  GI50: 3.18 µM
  TGI: 11.3 µM
U251 CNS
  GI50: 3.3 µM
  TGI: 11.3 µM
HOP-92 NSCLC
  GI50: 2.59 µM
  TGI: 7.13 µM
COLO 205 colon
  GI50: 2.1 µM
  TGI: 3.97 µM
UACC-257 melanoma
  GI50: 2.27 µM
  TGI: 6.48 µM
K-562 leukemia
  GI50: 3.03 µM
  TGI: 10.4 µM
SF-268 CNS
  GI50: 2.78 µM
  TGI: 11.3 µM
KM12 colon
  GI50: 3.05 µM
  TGI: 10.5 µM
RPMI-8226 leukemia
  GI50: 1.92 µM
  TGI: 5.04 µM
OVCAR-3 ovarian
  GI50: 3.45 µM
  TGI: 12.1 µM
MOLT-4 leukemia
  GI50: 2.41 µM
  TGI: 6.77 µM
OVCAR-4 ovarian
  GI50: 3.3 µM
  TGI: 13.2 µM
MALME-3M melanoma
  GI50: 1.96 µM
  TGI: 5.38 µM
SF-539 CNS
  GI50: 2.59 µM
  TGI: 6.91 µM
ACHN renal
  GI50: 3.09 µM
  TGI: 9.82 µM
HCT-116 colon
  GI50: 2.92 µM
  TGI: 10.4 µM
NCI-H460 lung
  GI50: 2.89 µM
  TGI: 9.77 µM
SNB-19 CNS
  GI50: 3.21 µM
  TGI: 12.2 µM
OVCAR-5 ovarian
  GI50: 3.45 µM
  TGI: 12.9 µM
RXF 393 renal
  GI50: 2.65 µM
  TGI: 8.72 µM
NCI-H522 lung
  GI50: 2.37 µM
  TGI: 7.56 µM
CCRF-CEM leukemia
  GI50: 2.61 µM
  TGI: 10.5 µM
NCI/ADR-RES ovarian
  GI50: 2.85 µM
  TGI: 9.36 µM
M14 melanoma
  GI50: 2.7 µM
  TGI: 10.7 µM
HOP-62 NSCLC
  GI50: 3.19 µM
  TGI: 11.8 µM
PC-3 prostate
  GI50: 3.48 µM
  TGI: 12.3 µM
SK-MEL-5 melanoma
  GI50: 1.73 µM
  TGI: 3.3 µM
OVCAR-8 ovarian
  GI50: 3.42 µM
  TGI: 11.9 µM
NCI-H226 lung
  GI50: 3.34 µM
  TGI: 11.7 µM
CAKI-1 renal
  GI50: 2.96 µM
  TGI: 10.7 µM
UACC-62 melanoma
  GI50: 2.62 µM
  TGI: 9.22 µM
DU-145 prostate
  GI50: 3.94 µM
  TGI: 14 µM
TK-10 renal
  GI50: 3.29 µM
  TGI: 12 µM
SF-295 CNS
  GI50: 2.04 µM
  TGI: 5.27 µM
SK-MEL-28 melanoma
  GI50: 3 µM
  TGI: 11 µM
IGROV1 ovarian
  GI50: 3.93 µM
  TGI: 14.5 µM
SN12C renal
  GI50: 2.59 µM
  TGI: 8.12 µM
SW-620 colon
  GI50: 3.41 µM
  TGI: 12.7 µM
HS 578T breast
  GI50: 2.6 µM
  TGI: 8.28 µM
NCI-H23 lung
  GI50: 2.45 µM
  TGI: 6.21 µM
SK-OV-3 ovarian
  GI50: 2.14 µM
  TGI: 6.98 µM
LOX IMVI melanoma
  GI50: 3.58 µM
  TGI: 12.8 µM
SR leukemia
  GI50: 1.86 µM
  TGI: 5.02 µM
EKVX NSCLC
  GI50: 2.9 µM
  TGI: 10.3 µM
HT29 colon
  GI50: 3.42 µM
  TGI: 11 µM
